{"source": "ChEMBL document CHEMBL5620379", "about": "“Discovery, SAR and mechanistic studies of quinazolinone-based acetamide derivatives in experimental visceral leishmaniasis” (Eur J Med Chem, 2023)", "key": {"[1]": {"tested_on": "Leishmania donovani", "experiment": "Induction of cell cycle arrest in Leishmania donovani promastigotes assessed as accumulation of cells at G2/M phase at 25 uM measured after 24 hrs by PI staining based flow cytometry analysis (reference value: 35.7%)", "assay_type": "functional"}, "[2]": {"tested_on": "Leishmania donovani", "experiment": "Antileishmanial activity against Leishmania donovani amastigotes infected in J774 macrophage assessed as inhibition of parasite growth incubated for 48 hrs by luciferase assay", "assay_type": "functional, organism-based", "settings": "J774, 48 h"}, "[3]": {"tested_on": "Splenocyte", "experiment": "Immunostimulatory activity in mouse splenocyte assessed as decrease in IL-10 secretion at 10 to 40 mg/kg measured after 1 week by RT-PCR analysis relative to control", "assay_type": "functional", "parameters": "scale not given: the % may be the effect or the level left", "settings": "dose 10-40 mg/kg, time 1 weeks"}, "[4]": {"tested_on": "Leishmania donovani", "experiment": "Antileishmanial activity against amastigote form of Leishmania donovani infected in BALB/c mouse assessed as inhibition of parasite growth in spleen at 10 mg/kg, po measured after 1 week post treatment by geimsa staining based analysis relative to control", "assay_type": "functional", "parameters": "scale not given: the % may be the effect or the level left", "settings": "time 1 weeks"}, "[5]": {"tested_on": "Leishmania donovani", "experiment": "Induction of autophagy in Leishmania donovani promastigotes assessed as fold induction of ATG12 gene at 25 uM measured after 24 hrs by RT-PCR analysis", "assay_type": "functional"}, "[6]": {"tested_on": "Leishmania donovani", "experiment": "Induction of cell cycle arrest in Leishmania donovani promastigotes assessed as accumulation of cells at S phase at 25 uM measured after 24 hrs by PI staining based flow cytometry analysis (reference value: 28.6%)", "assay_type": "functional"}, "[7]": {"tested_on": "Leishmania donovani", "experiment": "Induction of cell cycle arrest in Leishmania donovani promastigotes assessed as accumulation of cells at G1 phase at 25 uM measured after 24 hrs by PI staining based flow cytometry analysis (reference value: 35.7%)", "assay_type": "functional"}, "[8]": {"experiment": "Stability of the compound in Tris-buffer at 10 ug/ml at pH 7.4 measured upto 120 min by HPLC analysis", "assay_type": "physicochemical", "settings": "at 10 µg/mL, read-out: Stability"}, "[9]": {"tested_on": "Leishmania donovani", "experiment": "Induction of cell cycle arrest in Leishmania donovani promastigotes assessed as accumulation of cells at G1 phase at 25 uM measured after 12 hrs by PI staining based flow cytometry analysis (reference value: 35.7%)", "assay_type": "functional"}, "[10]": {"experiment": "Toxicity in BALB/c mouse assessed as effect on body weight at 10 to 40 mg/kg, po measured after 1 week", "assay_type": "organism-based", "settings": "in vivo, 168 h, dose 10-40 mg/kg, time 1 weeks"}, "[11]": {"tested_on": "J774", "experiment": "Downregulation of CREB phosphorylation level at Ser133 residue in mouse J774 macrophage infected with Leishmania donovani at 25 uM measured after 12 to 16 hrs by immunoblot analysis", "assay_type": "functional, cell-based", "settings": "time 12-16 hrs"}, "[12]": {"tested_on": "Leishmania donovani", "experiment": "Induction of cell cycle arrest in Leishmania donovani promastigotes assessed as accumulation of cells at G2/M phase at 25 uM measured after 8 hrs by PI staining based flow cytometry analysis (reference value: 35.7%)", "assay_type": "functional"}, "[13]": {"tested_on": "Leishmania donovani", "experiment": "Antileishmanial activity against Leishmania donovani promastigotes measured after 48 hrs by MTT assay", "assay_type": "functional, organism-based"}, "[14]": {"tested_on": "Leishmania donovani", "experiment": "Induction of cell cycle arrest in Leishmania donovani promastigotes assessed as accumulation of cells at S phase at 25 uM measured after 12 hrs by PI staining based flow cytometry analysis (reference value: 28.6%)", "assay_type": "functional"}, "[15]": {"experiment": "Stability of the compound in stimulated gastric fluid at 10 ug/ml at pH 1.2 measured upto 120 min by HPLC analysis", "assay_type": "ADME", "settings": "simulated gastric fluid, at 10 µg/mL, read-out: Stability"}, "[16]": {"experiment": "Selectivity index, ratio of CC50 for mouse J774 macrophage to IC50 for Leishmania donovani amastigotes infected in J774 macrophage", "assay_type": "toxicity", "settings": "J774 macrophages, read-out: Ratio CC50/IC50"}, "[17]": {"tested_on": "Leishmania donovani", "experiment": "Antileishmanial activity against Leishmania donovani amastigotes infected in J774 macrophage assessed as inhibition of parasite growth at 25 uM incubated for 48 hrs by luciferase assay relative to control", "assay_type": "functional", "parameters": "scale not given: the % may be the effect or the level left"}, "[18]": {"experiment": "Renal toxicity in golden hamster assessed as effect on urea level at 40 mg/kg, po measured after 28 days post infection", "assay_type": "organism-based, Mesocricetus auratus", "settings": "in vivo, 672 h, time 28 day"}, "[19]": {"tested_on": "Leishmania donovani", "experiment": "Induction of apoptosis in Leishmania donovani promastigotes assessed as appearance of disorganised mitochondrial cristae at 25 uM by transmission electron microscopy analysis", "assay_type": "functional, organism-based"}, "[20]": {"tested_on": "J774", "experiment": "Cytotoxicity against mouse J774 cells at 50 uM incubated for 72 hrs by MTT assay relative to control", "assay_type": "toxicity, cell-based", "settings": "j774, 72 h"}, "[21]": {"tested_on": "J774", "experiment": "Cytotoxicity against mouse J774 cells at 25 uM incubated for 72 hrs by MTT assay relative to control", "assay_type": "toxicity, cell-based", "settings": "j774, 72 h"}, "[22]": {"experiment": "Toxicity in golden hamster infected with Leishmania donovani assessed as reduction in serum AST level at 40 mg/kg ,po and measured after 28 days post infection (reference value: 82.72 IU/L)", "assay_type": "organism-based, Mesocricetus auratus", "settings": "in vivo, 672 h, time 28 day"}, "[23]": {"tested_on": "Leishmania donovani", "experiment": "Induction of cell cycle arrest in Leishmania donovani promastigotes assessed as accumulation of cells at G1 phase at 25 uM measured after 4 hrs by PI staining based flow cytometry analysis (reference value: 35.7%)", "assay_type": "functional"}, "[24]": {"tested_on": "Leishmania donovani", "experiment": "Antileishmanial activity against amastigote form of Leishmania donovani infected in BALB/c mouse assessed as inhibition of parasite growth in spleen at 20 mg/kg, po measured after 1 week post treatment by geimsa staining based analysis relative to control", "assay_type": "functional", "parameters": "scale not given: the % may be the effect or the level left", "settings": "time 1 weeks"}, "[25]": {"tested_on": "Leishmania donovani", "experiment": "Induction of cell cycle arrest in Leishmania donovani promastigotes assessed as accumulation of cells at S phase at 25 uM measured after 8 hrs by PI staining based flow cytometry analysis (reference value: 28.6%)", "assay_type": "functional"}, "[26]": {"tested_on": "J774", "experiment": "Downregulation of Akt phosphorylation in mouse J774 macrophage infected with Leishmania donovani at 25 uM measured after 4 to 8 hrs by immunoblot analysis", "assay_type": "functional, cell-based", "settings": "time 4-8 hrs"}, "[27]": {"tested_on": "Leishmania donovani", "experiment": "Antileishmanial activity against Leishmania donovani infected in golden hamster assessed as inhibition of parasite growth in spleen at 40 mg/kg, po administered for 7 days and measured after 28 days by giemsa staining based analysis relative to control", "assay_type": "functional", "parameters": "scale not given: the % may be the effect or the level left", "settings": "time 28 day"}, "[28]": {"tested_on": "Leishmania donovani", "experiment": "Induction of autophagy in Leishmania donovani promastigotes assessed as fold induction of ATG8 gene at 25 uM measured after 24 hrs by RT-PCR analysis", "assay_type": "functional"}, "[29]": {"tested_on": "Leishmania donovani", "experiment": "Antileishmanial activity against amastigote form of Leishmania donovani infected in BALB/c mouse assessed as inhibition of parasite growth in liver at 40 mg/kg, po measured after 1 week post treatment by geimsa staining based analysis relative to control", "assay_type": "functional", "parameters": "scale not given: the % may be the effect or the level left", "settings": "time 1 weeks"}, "[30]": {"tested_on": "J774", "experiment": "Cytotoxicity against mouse J774 cells at 12.5 uM incubated for 72 hrs by MTT assay relative to control", "assay_type": "toxicity, cell-based", "settings": "j774, 72 h"}, "[31]": {"tested_on": "Leishmania donovani", "experiment": "Antileishmanial activity against amastigote form of Leishmania donovani infected in BALB/c mouse assessed as inhibition of parasite growth in liver at 20 mg/kg, po measured after 1 week post treatment by geimsa staining based analysis relative to control", "assay_type": "functional", "parameters": "scale not given: the % may be the effect or the level left", "settings": "time 1 weeks"}, "[32]": {"tested_on": "Leishmania donovani", "experiment": "Induction of autophagy in Leishmania donovani promastigotes assessed as fold induction of ATG5 gene at 25 uM measured after 24 hrs by RT-PCR analysis", "assay_type": "functional"}, "[33]": {"tested_on": "J774", "experiment": "Downregulation of CREB enrichment in mouse J774 macrophage infected with Leishmania donovani at 25 uM measured after 4 hrs by ChIP assay", "assay_type": "functional, cell-based"}, "[34]": {"experiment": "Renal toxicity in golden hamster assessed as effect on creatinine level at 40 mg/kg, po measured after 28 days post infection", "assay_type": "organism-based, Mesocricetus auratus", "settings": "in vivo, 672 h, time 28 day"}, "[35]": {"tested_on": "Leishmania donovani", "experiment": "Antileishmanial activity against amastigote form of Leishmania donovani infected in BALB/c mouse assessed as inhibition of parasite growth in spleen at 40 mg/kg, po measured after 1 week post treatment by geimsa staining based analysis relative to control", "assay_type": "functional", "parameters": "scale not given: the % may be the effect or the level left", "settings": "time 1 weeks"}}, "note": "The source made the active and inactive calls. The rule behind the calls is not given here."}
{"smiles": "Cn1c(-c2ccc(OCC(=O)Nc3ccccn3)cc2)nc2ccccc2c1=O", "values": [{"measurement": "Activity", "setting": "[1]", "result": 13.9, "unit": "%"}, {"measurement": "IC50", "setting": "[2]", "result": 3.55, "unit": "µM"}, {"measurement": "Activity", "setting": "[3]", "result": 47.69, "unit": "%"}, {"measurement": "Activity", "setting": "[4]", "result": ">50", "unit": "%"}, {"measurement": "fold change (FC)", "setting": "[5]", "result": 8.57}, {"measurement": "Activity", "setting": "[6]", "result": 13.9, "unit": "%"}, {"measurement": "Activity", "setting": "[7]", "result": 72.2, "unit": "%"}, {"measurement": "remaining at 2 h, 10 ug/ml", "setting": "[8]", "result": 95.5, "unit": "%"}, {"measurement": "Activity", "setting": "[9]", "result": 65.8, "unit": "%"}, {"measurement": "Activity", "setting": "[10]", "result": "Non-Toxic"}, {"measurement": "Activity", "setting": "[11]", "result": "Active"}, {"measurement": "Activity", "setting": "[12]", "result": 23.8, "unit": "%"}, {"measurement": "IC50", "setting": "[13]", "result": 3.39, "unit": "µM"}, {"measurement": "Activity", "setting": "[14]", "result": 15.5, "unit": "%"}, {"measurement": "remaining at 2 h, 10 ug/ml", "setting": "[15]", "result": 94.5, "unit": "%"}, {"measurement": "selectivity ratio", "setting": "[16]", "result": 18.3}, {"measurement": "Activity", "setting": "[17]", "result": 82.68, "unit": "%"}, {"measurement": "Activity", "setting": "[18]", "result": "Non-Toxic"}, {"measurement": "Activity", "setting": "[19]", "result": "Active"}, {"measurement": "Activity", "setting": "[20]", "result": 52.15, "unit": "%"}, {"measurement": "Activity", "setting": "[21]", "result": 79.57, "unit": "%"}, {"measurement": "Activity", "setting": "[22]", "result": 123.38, "unit": "IU/L"}, {"measurement": "Activity", "setting": "[23]", "result": 43.8, "unit": "%"}, {"measurement": "Activity", "setting": "[24]", "result": ">50", "unit": "%"}, {"measurement": "Activity", "setting": "[25]", "result": 20.7, "unit": "%"}, {"measurement": "Activity", "setting": "[26]", "result": "Active"}, {"measurement": "Activity", "setting": "[27]", "result": 68.4, "unit": "%"}, {"measurement": "fold change (FC)", "setting": "[28]", "result": 8.92}, {"measurement": "Activity", "setting": "[29]", "result": 85.4, "unit": "%"}, {"measurement": "Activity", "setting": "[30]", "result": 90.78, "unit": "%"}, {"measurement": "Activity", "setting": "[31]", "result": ">50", "unit": "%"}, {"measurement": "fold change (FC)", "setting": "[32]", "result": 2.84}, {"measurement": "Activity", "setting": "[33]", "result": "Active"}, {"measurement": "Activity", "setting": "[34]", "result": "Non-Toxic"}, {"measurement": "Activity", "setting": "[35]", "result": 86.3, "unit": "%"}]}
